Data as given in patent US8217030B2, “Association of a sinus node if current inhibitor and a beta blocker” (Les Laboratoires Servier, priority 2008, dated 2012).

Assays:
[1] = tested on: patients with angina pectoris treated with β-blockers; assay: treadmill exercise tolerance test (ETT), Bruce protocol, clinical study; type: in vivo, human
Procedure: (§1) The patients selected for this clinical study are men and women from 18 to 75 years of age who have suffered from angina pectoris for at least 3 months and been treated with β-blockers such as atenolol (50 mg o.d.) or any other β-blocker at an equivalent dose for at least 3 months. These patients have, despite their treatment, a positive exercise tolerance test (ETT) and daily symptoms of angina pectoris.
(§2) This double-blind, parallel-group, international clinical study was carried out in 889 patients. The patients, all of whom are receiving atenolol, are randomised into two groups: • in addition to the β-blocker, the first group is given ivabradine (hydrochloride) at a dose of 5 mg twice a day for two months and then at a dose of 7.5 mg twice a day for a further two months; • in addition to the β-blocker, the second group is given a placebo for 4 months.
The patients are subjected to a treadmill exercise tolerance test (ETT) in accordance with the Bruce protocol before ivabradine is administered (that is when receiving β-blocker on its own), and after 4 months of treatment with the association between ivabradine and atenolol. The principal parameters measured in the course of the effort test are: • total exercise duration (TED)—the TED includes the time taken for the treadmill to come to a stop or, that is, a duration of about 10 seconds starting from the patient's request to stop the exercise; • the time until the “angina pectoris” pain forces the patient to stop the exercise (TLA); • the time until the onset of the “angina pectoris” pain (TAO); • the time taken for a 1 mm ST segment depression (TST) to appear on the electrocardiographic recording, this being a reflection of ischaemia and corresponding to the electrical sign of pain in the cardiac muscle.
These measurements are made at trough activity of the association of active ingredients or, that is, 12±1 hours and 24±2 hours after administration of the active ingredients.
The mean improvements in the various parameters measured during the treadmill exercise test, between the value measured before the start of treatment with ivabradine and the end of the treatment period, are set out in the table below: […]

[2] = tested on: patients with angina pectoris treated with β-blockers; assay: heart rate at rest in clinical study; type: in vivo, human; conditions: after 4 months of treatment; heart rate at rest on entry 67±7 beats per minute
Procedure: as §1, §2
The patients have a mean age of 60±8 years. On entry into the study, the mean systolic/diastolic arterial pressure and heart rate of the patients at rest are respectively, on average: 127±12/78±7 mmHg and 67±7 beats per minute. After 4 months of treatment with the association, the heart rate has reduced by 9±10 bpm (β-blocker+placebo 1±10 bpm).

[3] = mean ± SD, before ivabradine vs after 4 months of treatment, on top of atenolol, at trough activity

COc1cc2c(cc1OC)CC(=O)N(CCCN(C)C[C@H]1Cc3cc(OC)c(OC)cc31)CC2 [ivabradine, 3-{3-[{[(7S)-3,4-dimethoxybicyclo[4.2.0]octa-1,3,5-trien-7-yl]methyl}(methyl)amino]propyl}-7,8-dimethoxy-1,3,4,5-tetrahydro-2H-3-benzazepin-2-one]
exercise tolerance ([1]; patients already receiving a standard dose of β-blockers): capable of improving exercise tolerance

CC(C)NCC(O)COc1ccc(CC(N)=O)cc1 (stereo not drawn) [β-blocker + placebo, atenolol]
Improvement in time taken for a 1 mm ST segment depression (TST) [1, 3]: 15 ± 87 s
Improvement in time until angina pectoris pain forces the patient to stop the exercise (TLA) [1, 3]: 9 ± 64 s
Improvement in time until onset of angina pectoris pain (TAO) [1, 3]: 23 ± 79 s
Improvement in total exercise duration (TED) ([1]; mean ± SD, before ivabradine vs after 4 months of treatment, on top of atenolol, ivabradine 5 mg b.i.d. 2 months then 7.5 mg b.i.d. 2 months, at trough activity): 8 ± 64 s
reduction of heart rate [2]: 1±10 bpm
